Measurements from patent publication US20260055061A1, “HALOPHTHALIMIDE COMPOUNDS AND METHODS OF USE AGAINST TBI, INFLAMMATORY DISORDER, AUTOIMMUNE DISORDER, NEURODEGENERATIVE DISEASE OR VIRAL INFECTION” (The United States of America, as represented by the …, priority 2022, published 2026).

How the values were obtained:
[1] = system: LPS-induced nitrite in RAW 264.7 cells; experiment: LPS-induced nitrite production in RAW 264.7 cells (Griess reagent / fluorometric kit); assay type: cell-based, mouse; details: LPS-challenged RAW 264.7 cells, percentage of vehicle control value (control = 100%), mean ± S.E.M., n = 3
Experimental: Nitrite ion detection in drug treated […] cell culture media: To measure the levels of nitrite ion NO2—) the Griess Reagent System (Promega, Madison, WI, Cat #G2930) was utilized. The protocol followed was that recommended by the manufacturer. In brief a NO2— ion standard curve was prepared in culture media of the same composition to that used for the cell culture study. The concentration range of the standard curve was from 1.5 µM to 100 µM. Equal volumes (50 μL) of standards and unknown samples were added to clear 96 well plates in duplicate. Then 50 μL of sulfanilamide solution was added to each well and the plate was covered and incubated in the dark for 10 min. After the incubation period 50 μL of N-1-napthylethylenediamine dihydrochloride solution was added to each well and the plate was incubated in dark for a further 10 min. After this incubation, the plate was read at 550 nm on a SPECTRAmax PLUS plate reader and the absorbances were used to generate a NO2— standard curve and the NO2— ion levels of the unknown samples are determined using SoftMax Pro V5, Molecular Devices.
Most neurons are highly vulnerable to RNS and ROS. Nitric oxide (NO) is one of RNSs, which is very short lived and cannot be readily measured. However, nitrite is a stable end product of nitric oxide metabolism. Therefore, nitrite acts as a surrogate measure of NO. The Griess Reagent System (Promega Corporation, Madison, WI) can be applied to measure nitrite levels in culture media following the manufacturer's protocol, and this system was used in the present study as it is a more sensitive assay compared to quantifying actions on TNF-α by ELISA assay. […] This challenge induces high level of TNF-α protein accompanied by a robust generation of nitrite.
(§1) Cells were propagated as described by ATCC guidelines.

TNF-α = experiment: LPS-induced TNF-α production in RAW 264.7 cells (ELISA); assay type: cell-based, mouse; details: LPS-challenged RAW 264.7 cells, percentage of vehicle control value (control = 100%), mean ± S.E.M., n = 3
Experimental: Enzyme-linked immunosorbent assay for TNF-α protein: Media TNF-α levels were measured by use of the Biolegend ELISA MAX Set Delux ELISA (#430904). The protocol used was that recommended by the manufacturer. In brief, a day prior to performing the assay, a 96 well plate was coated with a capture antibody directed against TNF-α. The following day the assay plate was washed and blocked with the kit blocking agent for 1 h while being mixed on a plate shaker at 200 rpm (all incubations were mixed at 200 rpm unless stated otherwise). A TNF-α protein standard curve was prepared in the assay diluent following the kit instructions and unknown media samples were likewise diluted in the same assay diluent. After blocking, the plate was washed and then both the standards and unknown media samples were added to the plate in duplicate. The standards and unknown samples were incubated for 2 h. After the incubation, the plate was washed and then the biotin labeled detection antibody was added to each well and incubated for a further 1 h. After this incubation, the avidin-HRP conjugate complex was added to each well and incubated for 30 min. The plate was washed and the chromogenic substrate 3,3′,5,5′-tetramethylbenzidine solution was added to each well. At this point the plate was covered and incubated in the dark for 15 min, with no mixing. After 15 min the chromogenic reaction was stopped by the addition of 2 N H2SO4 and the absorbance was read at 450 nm and for background subtractions at 570 nm, on a SPECTRAmax PLUS plate reader. The absorbances were used to generate a TNF-α a protein standard curve and the protein levels in the unknown samples were determined using SoftMax Pro V5, Molecular Devices.
as §1

SARS-CoV-2 = experiment: Anti-SARS-CoV-2 activity (FIG. 6); assay type: cell-based
[2] = Cytotoxicity in the anti-SARS-CoV-2 evaluation (FIG. 6); assay type: cell-based; details: 25 μM
RAW 264.7 cells = experiment: Cell viability of drug treated RAW 264.7 cells (CellTiter 96 AQueous One, MTS); details: RAW 264.7 cells, percentage of vehicle control value, mean ± S.E.M., n = 3
[3] = target: cereblon (CRBN/DDB1-CUL4A-Rbx1 complex) / BRD3 (Homo sapiens (Human), UniProt Q96SW2); experiment: Cereblon/BRD3 binding assay (AlphaScreen / FRET)
Experimental: After 30 min of incubation with shaking at room temperature, AlphaLISA anti-FLAG Acceptor and Alpha Glutathione Donor beads (PerkinElmer) were sequentially added and then incubated for 1 hr at room temperature for each of the added chemicals. Alpha counts were thereafter read on a Synergy Neo2 (BioTek) for the analysis. Relative activity or inhibition was calculated as the highest value, which was set to 100%, and the lowest value was set to 0% after subtraction of the “blank value” from all readings.
After 30 min of incubation with shaking at room temperature, AlphaLISA anti-FLAG Acceptor and Alpha Glutathione Donor beads (PerkinElmer) were sequentially added and then incubated for 1 h at room temperature for each of the added chemicals. Alpha counts were thereafter read on a Synergy Neo2 (BioTek) for the analysis. The relative activity of the alpha signal was calculated after subtraction of the “blank value” from all readings, and the value of the vehicle group was then set as 100%.

SALL4 = SALL4 (Homo sapiens (Human), UniProt Q9UJQ4); experiment: SALL4 expression in Tera-1 cells (Western blot); assay type: cell-based; details: human Tera-1 cells; 0.01, 0.1, 1 μM; relative to GAPDH
Experimental: (§2) For Western blot analysis, total proteins were extracted using RIPA buffer (ThermoFisher Scientific, Waltham, MA) containing Halt Protease Inhibitor Cocktail (ThermoFisher Scientific). […] After incubation at 4° C. overnight, the following HRP conjugated secondary antibodies were used: (i) goat anti-rabbit IgG (ThermoFisher Scientific) for ikaros and aiolos, and (ii) goat anti-mouse IgG (ThermoFisher Scientific) for SALL4 and GAPDH. […] Antigen-antibody complexes were detected using enhanced chemiluminescence (Thermo, iBright CL1500).
(§3) Specifically, MM1.S cells were obtained from ATCC (Manassas, VA, USA), grown in RPMI media supplemented with 10% FBS, penicillin 100 U/mL, and streptomycin […], and maintained at 37° C. and 5% CO2.
as §2, with “MA, USA)” for “MA)”, “Scientific). Thereafter, the proteins were separated by gel electrophoresis and then transferred to polyvinylidene difluoride (PVDF) membranes (ThermoFisher Scientific), as described previously.” for “Scientific).”, “HRP-conjugated” for “HRP conjugated”, “Ikaros” for “ikaros”, “Aiolos,” for “aiolos,”, “(ThermoFisher Scientific,” for “(Thermo,”

Aiolos = Aiolos (Homo sapiens (Human), UniProt Q9UKT9); experiment: Aiolos degradation in MM1.S cells (Western blot); assay type: cell-based; details: 1 μM, relative to GAPDH
Experimental: as §2, §3
(§4) For Western blot analysis, total proteins were extracted using RIPA buffer (ThermoFisher Scientific, Waltham, MA, USA) containing Halt Protease Inhibitor Cocktail (ThermoFisher Scientific). Thereafter, the proteins were separated by gel electrophoresis and then transferred to polyvinylidene difluoride (PVDF) membranes (ThermoFisher Scientific), as described previously. […] Antigen-antibody complexes were detected using enhanced chemiluminescence (ThermoFisher Scientific, iBright CL1500).

Ikaros = Ikaros (Homo sapiens (Human), UniProt Q13422); experiment: Ikaros degradation in MM1.S cells (Western blot); assay type: cell-based; details: 1 μM, relative to GAPDH
Experimental: as §2, §3, §4

CCI-induced TBI mice = experiment: CCI mouse model of TBI: DigiGait gait analysis; assay type: in vivo
Experimental: In vivo model of TBI: Mice were anesthetized with 2.5% tribromoethanol (Avertin: 250 mg/kg; Sigma, St. Louis, MO, USA) and placed in a stereotaxic frame (Kopf Instruments, Tujunga, CA, USA). A 4 mm craniotomy was performed using sterile procedures; the craniotomy point was selected midway between the lambda and bregma sutures and laterally midway between the central suture and the temporalis muscle. The skull fragment was then carefully removed without disruption of the underlying dura. Prior to injury induction, the tip of the impactor was angled and kept perpendicular to the exposed cortical surface. The mouse CCI instrument consisted of an electromagnetic impactor, Impact One (Leica Biosystems Inc., Buffalo Grove, IL, USA) that allows independent alteration of injury severity by controlling contact velocity and the level of cortical deformation. In these experiments, the contact velocity was set at 5.0 m/sec, the dwell time was set at 0.2 s and the deformation depth was set at 2 mm to produce a moderate TBI. The injury site was allowed to dry prior to suturing the wound. During surgery and recovery, the body temperature of the animals was maintained at 36-37° C. by using a heating pad. […] Mice were randomized following CCI to treatment with either of two doses of TFBP (16.25 mg/kg and 32.5 mg/kg, i.p.) or saline, and were dosed at 1 and 24 hr after the injury.
Behavioral assessment for motor functions and coordination: Behavioral tests were performed 1 week and 2 weeks after injury, to assess changes in motor functions and coordination. All tests were performed during the animals' light phase; cages were transported to testing rooms at least 30 min prior to testing.
Gait analysis: For the gait analysis, mice were tested on a fixed-speed treadmill apparatus (DigiGait; Mouse Specifics). Mice were habituated to the apparatus for 1 min, and then given a 1-min run at 5 cm/s. Following a 1-min rest, the treadmill speed was increased to 15 cm/s. Video was collected at high speed from a ventrally placed camera, and 3-5 s of representative gait video was selected by an experienced but blinded user for automated analysis.
In Vivo Model of TBI: TBI studies were conducted in 8-week-old male C57/BL6 mice (25-30 g; n=20), Jackson Laboratory, Bar Harbor, Maine USA. Mice were randomly assigned to four groups prior surgery, CMC+Sham, CMC+TBI, compound 30 (Low dose (LD), 14.78 mg/kg, prepared in 1% CMC in PBS)+TBI, compound 30 (High dose (HD), 29.57 mg/kg)+TBI, and evaluated the effects of compound 30 on TBI. Mice were assessed for gait function and motor coordination, balance function. Animals were subsequently evaluated for cellular changes using histological and immunohistochemistry staining. […]

cereblon (CRBN/DDB1-CUL4A-Rbx1 complex) / BRD3, sequence (Q96SW2 whole entry): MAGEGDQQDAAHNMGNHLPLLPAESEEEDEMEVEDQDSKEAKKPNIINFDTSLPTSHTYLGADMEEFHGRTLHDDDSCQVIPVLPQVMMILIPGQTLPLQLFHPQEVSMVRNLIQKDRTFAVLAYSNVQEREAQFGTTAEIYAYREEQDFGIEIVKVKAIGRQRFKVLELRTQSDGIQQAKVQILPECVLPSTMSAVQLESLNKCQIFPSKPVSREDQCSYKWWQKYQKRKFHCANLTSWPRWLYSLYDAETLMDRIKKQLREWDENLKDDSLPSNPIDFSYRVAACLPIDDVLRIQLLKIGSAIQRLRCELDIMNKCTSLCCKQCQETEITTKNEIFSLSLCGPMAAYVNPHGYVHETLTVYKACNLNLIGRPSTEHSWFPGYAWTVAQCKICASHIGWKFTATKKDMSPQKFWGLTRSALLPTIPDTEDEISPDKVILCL
cereblon (CRBN/DDB1-CUL4A-Rbx1 complex) / BRD3, sequence (Q16531 whole entry partner): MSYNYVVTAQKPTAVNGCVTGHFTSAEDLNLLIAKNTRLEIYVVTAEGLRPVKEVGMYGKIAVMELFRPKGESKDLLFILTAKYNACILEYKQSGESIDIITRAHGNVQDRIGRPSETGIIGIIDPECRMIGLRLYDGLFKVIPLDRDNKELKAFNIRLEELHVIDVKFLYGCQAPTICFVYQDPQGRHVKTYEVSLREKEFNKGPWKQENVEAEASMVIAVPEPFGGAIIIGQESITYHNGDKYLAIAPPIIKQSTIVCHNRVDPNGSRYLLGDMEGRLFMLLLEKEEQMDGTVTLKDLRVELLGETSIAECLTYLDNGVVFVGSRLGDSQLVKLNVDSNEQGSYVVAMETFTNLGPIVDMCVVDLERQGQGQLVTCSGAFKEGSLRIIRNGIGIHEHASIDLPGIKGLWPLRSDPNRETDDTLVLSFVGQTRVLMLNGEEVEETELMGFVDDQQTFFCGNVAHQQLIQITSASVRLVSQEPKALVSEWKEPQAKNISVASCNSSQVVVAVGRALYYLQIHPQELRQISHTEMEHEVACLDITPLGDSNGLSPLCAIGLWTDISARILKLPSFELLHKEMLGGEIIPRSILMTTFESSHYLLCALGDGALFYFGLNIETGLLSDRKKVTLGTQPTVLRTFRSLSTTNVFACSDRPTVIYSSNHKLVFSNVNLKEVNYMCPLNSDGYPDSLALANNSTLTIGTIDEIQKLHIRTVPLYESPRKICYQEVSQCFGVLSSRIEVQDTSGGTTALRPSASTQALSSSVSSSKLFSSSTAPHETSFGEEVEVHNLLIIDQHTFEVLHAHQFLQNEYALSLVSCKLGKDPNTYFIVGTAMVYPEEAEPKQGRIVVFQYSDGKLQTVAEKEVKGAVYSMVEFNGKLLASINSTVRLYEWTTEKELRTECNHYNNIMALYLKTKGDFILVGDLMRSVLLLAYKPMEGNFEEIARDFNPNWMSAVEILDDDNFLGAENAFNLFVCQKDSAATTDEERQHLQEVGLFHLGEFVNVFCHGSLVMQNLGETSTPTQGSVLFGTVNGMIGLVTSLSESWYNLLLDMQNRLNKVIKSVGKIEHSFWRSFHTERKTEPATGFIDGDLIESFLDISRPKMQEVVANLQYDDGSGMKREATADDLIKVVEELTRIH
cereblon (CRBN/DDB1-CUL4A-Rbx1 complex) / BRD3, sequence (Q13619 whole entry partner): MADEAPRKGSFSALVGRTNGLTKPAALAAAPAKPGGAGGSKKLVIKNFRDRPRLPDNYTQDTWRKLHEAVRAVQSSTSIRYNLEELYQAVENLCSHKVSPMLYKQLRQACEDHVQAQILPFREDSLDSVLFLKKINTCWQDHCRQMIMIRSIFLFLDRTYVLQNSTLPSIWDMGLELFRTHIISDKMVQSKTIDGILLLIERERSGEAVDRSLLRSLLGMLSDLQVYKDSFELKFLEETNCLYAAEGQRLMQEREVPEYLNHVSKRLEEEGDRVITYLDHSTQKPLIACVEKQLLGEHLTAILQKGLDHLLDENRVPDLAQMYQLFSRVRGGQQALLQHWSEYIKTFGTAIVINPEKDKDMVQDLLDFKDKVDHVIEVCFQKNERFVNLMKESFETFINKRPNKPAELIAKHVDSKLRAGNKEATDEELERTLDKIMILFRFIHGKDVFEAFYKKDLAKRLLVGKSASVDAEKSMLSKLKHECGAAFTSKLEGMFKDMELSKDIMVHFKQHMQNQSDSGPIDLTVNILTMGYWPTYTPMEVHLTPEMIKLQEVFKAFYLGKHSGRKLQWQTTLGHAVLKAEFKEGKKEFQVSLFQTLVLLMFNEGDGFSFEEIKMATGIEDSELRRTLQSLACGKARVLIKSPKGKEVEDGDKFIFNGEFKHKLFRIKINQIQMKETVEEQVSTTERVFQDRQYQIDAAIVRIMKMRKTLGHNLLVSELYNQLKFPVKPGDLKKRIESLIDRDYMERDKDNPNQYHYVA
cereblon (CRBN/DDB1-CUL4A-Rbx1 complex) / BRD3, sequence (P62877 whole entry partner): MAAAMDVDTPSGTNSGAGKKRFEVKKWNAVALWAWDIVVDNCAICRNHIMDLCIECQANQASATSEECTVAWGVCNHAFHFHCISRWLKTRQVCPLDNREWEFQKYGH

IC50 ([3]; Example 6, FIG. 28A) [nM] | cereblon binding (in words) ([3]; cereblon/BRD3 binding FRET assay) | SALL4 levels (SALL4) | Aiolos levels (Aiolos) | Ikaros levels (Ikaros) | Compound | nitrite level, % of vehicle control ([1]; 1 μM) [%] | nitrite level, % of vehicle control ([1]; 10 μM) [%] | TNF-α % Δ (TNF-α; 1 μM) [%] | TNF-α % Δ (TNF-α; 10 μM) [%] | SARS-CoV-2 inhibitory activity (SARS-CoV-2) | cytotoxicity [2] | Cell Viability % Δ (RAW 264.7 cells; 1 μM) [%] | Cell Viability % Δ (RAW 264.7 cells; 10 μM) [%] | gait % of brake phase (CCI-induced TBI mice; high dose 29.57 mg/kg) | gait propel time and % of propel phase (CCI-induced TBI mice; high dose 29.57 mg/kg) | gait brake time (CCI-induced TBI mice; low dose 14.78 mg/kg, 1 and 2 weeks after TBI)
 |  |  |  |  | C[C@@H]1[C@@H](N2C(=O)c3c(F)ccc(F)c3C2=O)C[C@H]2C[C@@H]1C2(C)C [Compound 18, 4,7-Difluoro-2-((1S,2S,3S,5R)-2,6,6-trimethylbicyclo[3.1.1]heptan-3-yl) isoindoline-1,3-dione] | 96 ± 4 | 71 ± 4 | 101 ± 5 | 89 ± 5 | potent SARS-CoV-2 inhibitory activity | preliminarily acceptable cytotoxicity | 102 ± 4 | 76 ± 5 |  |  | 
2660 | potently bind to cereblon | no significant effect | no significant effect | no significant effect | 4-amino-7-fluoro-2-(2-oxo-6-thioxopiperidin-3-yl)-3-thioxoisoindolin-1-one [Compound 30] |  |  |  |  |  |  |  |  | impairment of brake phase was ameliorated | significantly mitigate propel time and % of propel phase | significantly mitigated the deficit of brake time
